Data as given in patent US9657071B2, “IgE peptide vaccine” (NIPPON ZENYAKU KOGYO CO., LTD., priority 2012, dated 2017).

Legend:
mouse IgE = assay: Reactivity of serum of peptide-immunized rabbit with mouse IgE (ELISA); type: in vivo; conditions: 500 μg peptide + complete adjuvant s.c.
Method: 2 mL of the 250 μg/mL peptide (a total of 500 μg) used in Example 2 was mixed with an equal amount of a complete adjuvant (a total of 4 mL). Each rabbit was immunized with this mixture by the subcutaneous administration (amount of the peptide: 500 μg) at day 0 and weeks 2, 4, 6, and 8. Blood was collected 5 weeks after the week-8 administration (week 13 counted from day 0). Booster immunization was performed at week 14 counted from day 0, and blood was further collected 2 weeks thereafter (week 16 counted from day 0). Antibody titers in the collected blood were measured by ELISA. The serum of a rabbit that received no peptide was used as a control.
ELISA was performed by the following method: each […] recombinant CH3 solution of dog IgE, human IgE, mouse IgE, dog IgG, and cat IgE was immobilized at a concentration of 100 μL/well (100 ng/well) to a plate. The serum collected from the immunized rabbit was used (×200 to ×102400) as a primary antibody. An enzyme-labeled anti-rabbit IgG antibody (Zymed Laboratories Inc.) was used as a secondary antibody.

human IgE = assay: IgE-specific IgG in serum of dogs given IgE peptide vaccine (ELISA, human IgE immobilized); type: in vivo; conditions: dog
Method: The peptide used was MOUSE CH3-4-17-11 (mouse CH3 region amino acid sequence) (SEQ ID NO: 27). 2 mL (500 μg) of a solution of the peptide (concentration: 250 μg/mL) and 2 mL of a complete adjuvant (DIFCO ADJUVANT COMPLETE FREUND, Becton, Dickinson and Company Japan) were dispensed to microtubes. Liquids (4 mL per animal) emulsified by shaking for 15 minutes in a high-speed shaker were used as IgE peptide vaccines.
The animals used were 1 male and 7 females of 5- to 7-month-old beagles and were divided into an administration group (n=4; 08-33, 08-42, 08-43, and 08-44) and a non-administration group (n=4; 08-45, 08-46, 08-47, and 08-48).
The peptide was administered at days 0 (test start date), 14, and 28 in the first course and further at days 106 and 117 in the second course. The test substance was subcutaneously administered to the necks of the 4 animals in the administration group. The non-administration group was untreated. […]
Each antigenic protein (MOUSE CH3-4-17-11 for peptide-specific IgG assay, and human IgE for IgE-specific IgG assay) was prepared at 1 μg/mL in an immobilization buffer (0.05 M carbonate buffer, pH 9.6), then added at a concentration of 100 μL/well to an ELISA plate, and left overnight at 4° C. […] Then, the measurement was performed using a plate reader (Bio-Rad Laboratories, Inc.; model 680) (dual: measurement: 450 nm, control: 570 nm). […]

QEKKTSVSASQWYTKHHNNATTSIT (listed as Mus musculus) [MOUSE CH3-4-17-11]
response of immobilized mouse IgE to peptide-administered rabbit serum (mouse IgE): responded
IgE-specific IgG in serum, administration group versus non-administration group (human IgE; day 77, p<0.05): significantly higher
level of IgG antibody against IgE (human IgE; summary of FIG. 6): increased
